Experimental data published in ChEMBL document CHEMBL1201862, “PubChem BioAssay data set” (2004).
Calls of active or inactive are those of the source.

Columns and labels:
[1] = Counterscreen for IDE inhibitors: Luminescence-based cell-based high throughput dose response assay to identify compounds that are cytotoxic to HEK cells. [Related pubchem assays: 434962 (Primary screen (IDE inhibitors in singlicate)), 449730 (Counterscreen (Cytotoxicity in triplicate)), 435028 (Confirmation (IDE inhibitors in triplicate)) …; type: functional; settings: HEK293
Insulin-degrading enzyme = biological target: T1, Insulin-degrading enzyme (Homo sapiens, UniProt P14735); assay: Dose Response: Fluorescence polarization-based cell-based high throughput dose response assay for inhibitors of insulin-degrading enzyme (IDE). [Related pubchem assays: 434962 (Primary screen (IDE inhibitors in singlicate)), 449730 (Counterscreen (Cytotoxicity in triplicate)), 435028 (Confirmation (IDE inhibitors in triplicate)), 434984 (Summary …; type: functional
T1 sequence (P14735 whole entry): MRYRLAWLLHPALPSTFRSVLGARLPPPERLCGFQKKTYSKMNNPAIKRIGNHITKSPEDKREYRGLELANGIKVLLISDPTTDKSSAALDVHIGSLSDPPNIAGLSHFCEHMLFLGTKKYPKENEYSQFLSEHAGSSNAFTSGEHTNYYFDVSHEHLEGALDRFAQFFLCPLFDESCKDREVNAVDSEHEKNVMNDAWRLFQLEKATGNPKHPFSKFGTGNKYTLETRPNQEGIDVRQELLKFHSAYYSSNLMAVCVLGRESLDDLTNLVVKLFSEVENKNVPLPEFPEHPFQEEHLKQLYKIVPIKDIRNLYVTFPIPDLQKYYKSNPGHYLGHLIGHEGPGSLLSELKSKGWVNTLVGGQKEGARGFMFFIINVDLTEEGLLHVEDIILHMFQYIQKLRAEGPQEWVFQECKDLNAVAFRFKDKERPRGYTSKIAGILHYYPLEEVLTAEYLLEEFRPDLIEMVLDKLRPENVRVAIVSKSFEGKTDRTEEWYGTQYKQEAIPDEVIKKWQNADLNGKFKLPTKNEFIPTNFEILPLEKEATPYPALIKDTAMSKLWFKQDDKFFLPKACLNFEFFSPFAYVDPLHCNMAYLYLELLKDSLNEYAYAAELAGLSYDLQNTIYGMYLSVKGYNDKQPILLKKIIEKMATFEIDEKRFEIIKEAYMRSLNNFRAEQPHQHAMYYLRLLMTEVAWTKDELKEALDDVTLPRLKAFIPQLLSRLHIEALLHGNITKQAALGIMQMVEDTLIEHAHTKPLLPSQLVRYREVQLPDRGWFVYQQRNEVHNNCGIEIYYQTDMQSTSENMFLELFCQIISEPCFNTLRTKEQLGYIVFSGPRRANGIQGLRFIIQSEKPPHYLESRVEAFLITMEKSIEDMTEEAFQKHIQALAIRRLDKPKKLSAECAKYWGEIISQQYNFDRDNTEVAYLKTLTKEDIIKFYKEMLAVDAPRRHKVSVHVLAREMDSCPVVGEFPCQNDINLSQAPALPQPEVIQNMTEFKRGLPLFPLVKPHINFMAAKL

Candida albicans [2] = assay: growth inhibition of resistant C. albicans, dose response, CaCi-8 strain, fluconazole, dry powder, set 4 (AID 488950); type: functional, organism-based
Candida albicans [3] = assay: C. albicans growth inhibition with fluconazole, dose response, antifungal resistance reversal project, CaCi-2 strain, Alamar Blue, dry powder, set 2 (AID 488930); type: functional, organism-based
Candida albicans [4] = assay: fluconazole resistance reversal in C. albicans, dose response, CaCi-2 strain, Alamar Blue, dry powder, set 4 (AID 488943); type: functional, organism-based
Candida albicans [5] = assay: growth inhibition of azole-resistant C. albicans, dose response, CaCi-8 strain, Alamar Blue, dry powder, set 2 (AID 488909); type: functional, organism-based
[6] = biological target: T2, Beta-2 adrenergic receptor (Homo sapiens, UniProt P07550); assay: beta2AR agonists driving receptor internalization, dose response, cell-based, FAP fluorogen, flow cytometry, cherry pick 1 (AID 588763); type: functional
T2 sequence (P07550 whole entry): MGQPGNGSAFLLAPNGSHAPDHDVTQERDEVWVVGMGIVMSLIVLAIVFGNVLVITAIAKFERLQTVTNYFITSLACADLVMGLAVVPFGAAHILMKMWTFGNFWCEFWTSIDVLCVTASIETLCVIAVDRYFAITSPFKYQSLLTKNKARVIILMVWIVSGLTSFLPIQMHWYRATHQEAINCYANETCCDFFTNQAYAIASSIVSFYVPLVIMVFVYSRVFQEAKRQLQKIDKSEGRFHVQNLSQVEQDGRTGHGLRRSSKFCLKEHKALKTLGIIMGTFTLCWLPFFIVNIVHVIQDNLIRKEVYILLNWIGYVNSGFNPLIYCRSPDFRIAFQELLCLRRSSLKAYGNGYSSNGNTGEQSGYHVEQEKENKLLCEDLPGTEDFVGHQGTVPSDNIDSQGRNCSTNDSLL

[7] = biological target: T2, Beta-2 adrenergic receptor; assay: Dose response for HTS for Beta-2AR agonists via FAP method from Powderset2.; type: functional
INS1 [8] = assay: protection of INS-1E cells from cytokine death, dose response, ATP luminescence, dry powder (AID 488844); type: functional, cell-based; settings: Rattus norvegicus
INS1 [9] = assay: protection from cytokine-driven beta-cell apoptosis, dose response, JC-1 fluorescence, INS-1E, dry powder, set 2 (AID 488867); type: functional, cell-based; settings: Rattus norvegicus
INS1 [10] = assay: protection from cytokine-induced mitochondrial depolarization, dose response, cell-based, INS-1E, JC-1 fluorescence ratio, dry powder (AID 488931); type: functional; settings: Rattus norvegicus

O=C(C1CCC1)N1CCN(c2ccnc3cc(Cl)ccc23)CC1
IC50 [1]: 22.1 µM (not active)
IC50 (Insulin-degrading enzyme): 31.6 µM (not active)
AC50 (Candida albicans [2]): 5 µM (active)
AC50 (Candida albicans [3]): 1.5 µM (active)
AC50 (Candida albicans [4]): 16.9 µM (active)
AC50 (Candida albicans [5]): 0.58 µM (active)

CCOC(=O)c1ccc(NC(=O)Cn2nnc(-c3ccccc3)n2)cc1
EC50 [6]: 1.18 µM (active)
EC50 [7]: 1.31 µM (active)

C[C@@H]1CN([C@H](C)CO)C(=O)c2cccc(NC(=O)Nc3ccc(F)cc3)c2O[C@H]1CN(C)S(=O)(=O)c1ccc(Cl)cc1
AC50 (INS1 [8]): 48 µM (active)
AC50 (INS1 [9]): 227 µM (active)
AC50 (INS1 [10]): 62.1 µM (active)
